Data as given in patent EP2114888B1, “TRICYCLIC COMPOUNDS AND THEIR USE AS GLUCOCORTICOID RECEPTOR MODULATORS” (priority 2007, dated 2008).

Columns and labels:
in vivo = conditions: rat, po
[1] = Oral dosing in portal vein-cannulated rats, portal vein plasma; format: in vivo; conditions: oral dosing 30 and 200 mg/kg, over a four-hour time period
[2] = Oral absorption profile, time to Cmax in dogs; conditions: dog, in vivo
[3] = target: full-length glucocorticoid (GR) protein; assay: Glucocorticoid receptor fluorescence polarization ligand binding (GRFP) assay; conditions: additional result (footnote a)
Source text: The glucocorticoid receptor fluorescence polarization ligand binding (GRFP) assay is used to evaluate direct binding of testing compounds to full-length glucocorticoid (GR) protein. Reagents for this assay are purchased from Invitrogen in a test kit. A fluorescent labeled GR ligand is used as a fluorescent tracer and test compounds compete with the fluorescent tracer for GR binding. The change in polarization value in the presence of test compounds is due to binding of test compounds to GR and is used to determine IC50 and relative binding affinity of test compounds for GR.

[4] = Oral absorption profile in rats
[5] = Solubility and intrinsic dissolution; format: physicochemical
[6] = Caco-2 cell monolayer A→B permeability assay; conditions: human
Source text: The Caco-2 cell monolayer is an in vitro tissue culture model of the intestinal epithelium. These cells are of human colonic origin and become polarized, fully differentiated enterocytes in 2-3 weeks. Once differentiated, these cells have tight junctions and express various biochemical processes such as active efflux transporters including P-glycoprotein (P-gp). With this model, it is possible to determine the apparent permeability (Papp) of a compound across the polarized Caco-2 cell monolayer.
An A→B Assay is performed with Caco-2 cell monolayers to determine compound Papp from A chamber to B chamber. This Papp is representative of luminal (gut) to serosal (blood) compound transport across intestinal epithelium that may be seen during intestinal absorption.

IL-6 = assay: IL-1β-stimulated IL-6 production in A549 lung epithelial cells; format: cell-based, Human
Method: Human A549 lung epithelial cells (American Type Culture Collection, Rockville, MD) were cultured in Kaighn's F-12K medium with penicillin-streptomycin (10 U/mL) and 10% heat-inactivated fetal bovine serum (all from Invitrogen, Grand Island, NY). A549 cells were plated at a density of 30,000 cells/well in 96-well plates and incubated overnight at 37°C and with 5% CO2. The cells were serum-starved by replacing the growth medium with serum-free Kaighn's F-12K medium with penicillin-streptomycin (10 U/mL) and, again, incubating overnight at 37°C and with 5% CO2. On the third day, the medium was replaced with fresh serum-free medium and the cells were incubated with or without compound (vehicle was DMSO at 0.1 % maximum concentration) for approximately 1 hour and then stimulated with 1 ng/mL recombinant human IL-1β (R&D Systems, Minneapolis, MN) for 20 hours at 37°C and with 5% CO2. Cell supernatants were collected for determination of IL-6 levels using MSD (Meso Scale Discovery, Gaithersburg, MD) 96-well Single Spot plates as per the manufacturer's instructions. Plates were read with an MSD Sector Imager 6000. […] Percent inhibition for each compound concentration, relative to these controls, was calculated using Excel (Microsoft, Redmond, WA). IC50 values were generated using GraFit 5.0 data analysis software (Erithacus Software Ltd., Surrey, UK).

## Cc1ncccc1NC(=O)c1ccc2c(c1)CC[C@@H]1C[C@@](OP(=O)(O)O)(C(F)(F)F)CC[C@@]21Cc1ccccc1 [Example 2, (2R,4αS,10αR)-4α-benzyl-7-((2-methylpyridin-3-yl)carbamoyl)-2-(trifluoromethyl)-1,2,3,4,4α,9,10,10α-octahydrophenanthren-2-yl dihydrogen phosphate]
In vivo
  AUC: 1610 ng·h/mL
[1]
  detection in portal vein plasma samples: detection of Example 1, but not Example 2
[2]
  Tmax: 48 min
Caco-2 cell monolayer
  Example 1 in apical and basolateral compartments: significant elevation of Example 1 in both the apical and basolateral compartments
[3]
  IC50: 42 nM
[4]
  bioavailability F: 59%
[4]; oral
  Cmax: 590 ng/mL
[5]
  solubility and intrinsic dissolution: enhanced solubility and intrinsic dissolution
[6]
  Papp A→B: 1.15 ×10⁻⁶ cm/s
IL-6; A549 cells, additional result (footnote a)
  IL-6 % Inhibition: 80%
IL-6; Homo sapiens, A549
  inhibition: 60.2%
IL-6; Homo sapiens, A549 cells, additional result (footnote a)
  IC50: 17 nM
